Assays:
[1] = tested on: Theileria parasites in TBL3-infected cells; experiment: Parasites quantification by DAPI staining in infected cells; format: cell-based, T.annulata; conditions: 72h, Buparvaquone 200ng/ml, Juglone 5 µM, PiB 1 µM
Description: All infected bovine cell lines used in this study were previously described: TBL3 cells were derived from in vitro infection of the spontaneous bovine-B lymphosarcoma cell line, BL3, with Hissar stock of T.annulata. The TpMD409 lymphocyte cell line are infected with T. parva. The culture conditions of these cell lines were previously described by Moreau et al., 1999. Cells were cultured in RPMI 1640 (Gibco-BRL, Paisley, UK), supplemented with 10% heat-inactivated Fetal calf serum, 4mM L-Glutamine, 25mM HEPES, 10µM β-mercaptoethanol and 100µg/ml penicillin/streptomycin in a humidified 5%CO2 atmosphere at 37°C. HepG2, NIH/3T3 and MEF cells lines were cultured in DMEM (Gibco-BRL, Paisley, UK), supplemented with 10% heat-inactivated Fetal calf serum, 4mM L-Glutamine, 25 mM HEPES, 10µM β-mercaptoethanol and 100µg/ml penicillin/streptomycin in a humidified 5% CO2 atmosphere at 37°C. Cell numbers, as judged by Trypan Blue exclusion test, were determined by counting cells using a Countess automated cell counter (Invitrogen, CA, USA). The anti-parasite drug Buparvaquone (BW720c) was used at 200ng/ml for 72 hours. BW720c has no effect on growth of uninfected cells. […] Images of immunofluoresence staining were photographed with a fluorescent microscope (Leica Inverted 6000) and the number of parasites per cells was counted. […]

[2] = tested on: non-parasitized BL3 cells; experiment: Cell proliferation, live cell count after trypan blue exclusion, BL3; format: cell-based, bovine; conditions: BL3 / uninfected cells
Description: (§1) All infected bovine cell lines used in this study were previously described: TBL3 cells were derived from in vitro infection of the spontaneous bovine-B lymphosarcoma cell line, BL3, with Hissar stock of T.annulata. The TpMD409 lymphocyte cell line are infected with T. parva. The culture conditions of these cell lines were previously described by Moreau et al., 1999. Cells were cultured in RPMI 1640 (Gibco-BRL, Paisley, UK), supplemented with 10% heat-inactivated Fetal calf serum, 4mM L-Glutamine, 25mM HEPES, 10µM β-mercaptoethanol and 100µg/ml penicillin/streptomycin in a humidified 5%CO2 atmosphere at 37°C. HepG2, NIH/3T3 and MEF cells lines were cultured in DMEM (Gibco-BRL, Paisley, UK), supplemented with 10% heat-inactivated Fetal calf serum, 4mM L-Glutamine, 25 mM HEPES, 10µM β-mercaptoethanol and 100µg/ml penicillin/streptomycin in a humidified 5% CO2 atmosphere at 37°C. Cell numbers, as judged by Trypan Blue exclusion test, were determined by counting cells using a Countess automated cell counter (Invitrogen, CA, USA). The anti-parasite drug Buparvaquone (BW720c) was used at 200ng/ml for 72 hours. BW720c has no effect on growth of uninfected cells.
Cells were treated with either Juglone at 5 µM resuspended in Ethanol (Sigma, St Louis, MO, Ref.: H47003), or PiB at 1 µM resuspended in DMSO (Sigma, Ref.: B7688), or Dimethyloxalylglycine DMOG at 0.5 mM resuspended in DMSO (Tebu-bio, MO, USA).

TpMD409 cells = experiment: Soft agar colony forming assay, TpMD409; format: cell-based, bovine; conditions: colonies counted 10 days after plating
Description: as §1, with “HepG2, NIH/3T3 and MEF cells lines were cultured in DMEM (Gibco-BRL, Paisley, UK), supplemented with 10% heat-inactivated Fetal calf serum, 4mM L-Glutamine, 25 mM HEPES, 10µM β-mercaptoethanol and 100µg/ml penicillin/streptomycin in a humidified 5% CO2 atmosphere at 37°C.” left out, “The anti-parasite drug Buparvaquone (BW720c) was used at 200ng/ml for 72 hours. BW720c has no effect on growth of uninfected cells.” left out
A two-layer soft agar culture system was used. […] Cultures were incubated in humidified 37°C incubators with an atmosphere of 5%CO2 in air, and control plates were monitored for growth using a microscope. At the time of maximum colony formation (10 days in culture), final colony numbers were counted manually after fixation a staining with 0.005% Crystal Violet (Sigma, Ref.: C3886).

[3] = tested on: transcripts encoding glycolytic enzymes; experiment: Expression of transcripts encoding glycolytic enzymes in Theileria-infected cells; format: cell-based, bovine
Description: Total cellular RNAs were extracted using an RNeasy Plus Mini Kit (Qiagen, Hilden, Germany) and parasite RNAs were extracted using the classical Trizol Protocol. cDNA synthesis was performed with the Reverse Transcriptase Superscript III (Invitrogen, CA, USA).
Quantitative PCR amplification was performed in the ABI 7500 machine (Applied Biosystems, CA, USA) using the Sybr Green reagent (Applied Biosystems, CA, USA) using the primers listed in Table 5 below. The detection of a single product was verified by dissociation curve analysis. Relative quantities of mRNA were analyzed using the delta Ct method. The βactin qPCR was used for normalization. Table 5: qPCR primers

CC(C)(C)C1CCC(CC2=C(O)C(=O)c3ccccc3C2=O)CC1 (stereo not drawn) [Buparvaquone, 2-((4-tert-butylcyclohexyl)methyl)-3-hydroxy-1,4-naphthoquinone]
parasites in TBL3 cells [1]: eliminate parasites
proliferation of non-parasitized cells [2]: no effect
transformed phenotype, colonies in soft agar (TpMD409 cells): reversed the transformed phenotype
expression of the transcripts encoding glycolytic enzymes [3]: reduced expression
drug-induced decrease in glycolytic enzyme expression on overexpression of the TaPIN A53P mutant ([3]; overexpression of TaPIN A53P): reversed

CCOC(=O)CN1C(=O)c2ccc3c4c(ccc(c24)C1=O)C(=O)N(CC(=O)OCC)C3=O [PiB, benzo[Imn][3,8]phenanthroline-2,7-diacetic acid, 1,3,6,8-tetrahydro-1,3,6,8-tetraoxo-, diethyl ester]
parasites in TBL3 cells [1]: eliminate parasites
proliferation of non-parasitized cells [2]: no effect
transformed phenotype, colonies in soft agar (TpMD409 cells): reduced
expression of the transcripts encoding glycolytic enzymes [3]: reduced expression
